Where a name gives a salt, the structure may show the parent alone.

The target in one assay is AaDOP2 (Aedes aegypti, UniProt H6D5H2). Kind of assay: AaDOP2 antagonist screen of the LOPAC1280 library (HEK-CRELuc-Aadop2 cells, luminescence).
Chain of AaDOP2 (H6D5H2 1-476): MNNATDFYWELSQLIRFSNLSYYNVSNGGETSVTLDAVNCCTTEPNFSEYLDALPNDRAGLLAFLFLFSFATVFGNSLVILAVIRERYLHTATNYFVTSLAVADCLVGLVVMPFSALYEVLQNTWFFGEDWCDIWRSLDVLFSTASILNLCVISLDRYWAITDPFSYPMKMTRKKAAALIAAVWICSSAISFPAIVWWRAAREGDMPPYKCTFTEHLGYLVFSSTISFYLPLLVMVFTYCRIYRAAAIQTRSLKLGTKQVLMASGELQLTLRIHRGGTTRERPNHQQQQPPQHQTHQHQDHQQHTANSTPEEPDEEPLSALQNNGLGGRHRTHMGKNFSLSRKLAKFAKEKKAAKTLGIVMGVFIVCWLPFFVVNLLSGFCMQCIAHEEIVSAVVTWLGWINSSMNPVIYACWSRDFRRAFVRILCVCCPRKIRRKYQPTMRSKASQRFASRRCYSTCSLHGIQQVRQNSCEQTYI
Conditions: not given
Format: cell-based.
In the case of `CC(NCCc1ccc(O)cc1)C(O)c1ccc(O)cc1` (stereo not shown) [Compound 1041, Ritodrine hydrochloride], the “Compound effect (percent receptor signaling in presence of test compound, relative lux units relative to the SCH23390 control)” value was 119.

In the case of `O=C(c1ccc(OCCN2CCCCC2)cc1)c1c(-c2ccc(O)cc2)sc2cc(O)ccc12` [Compound 1042, Raloxifene hydrochloride], the “Compound effect (percent receptor signaling in presence of test compound, relative lux units relative to the SCH23390 control)” value is 103.

For `CC1=C(/C=C/C(C)=C/C=C/C(C)=C/C(=O)O)C(C)(C)CCC1` [Compound 1043, Retinoic acid], the “Compound effect (percent receptor signaling in presence of test compound, relative lux units relative to the SCH23390 control)” value is 106.

Regarding `N.N.N.N.N.N.N.N.N.N.N.N.N.N.[Cl-].[Cl-].[Cl-].[Cl-].[Cl-].[Cl-].[O-2].[O-2].[Ru+3].[Ru+3].[Ru+4]` [Compound 1044, Ruthenium red], the “Compound effect (percent receptor signaling in presence of test compound, relative lux units relative to the SCH23390 control)” value came out at 61.

For the compound `CC1=C(/C=C/C(C)=C/C=C/C(C)=C\C(=O)O)C(C)(C)CCC1` [Compound 1045, 13-cis-retinoic acid], the “Compound effect (percent receptor signaling in presence of test compound, relative lux units relative to the SCH23390 control)” value is 72.

In the case of `O=c1c2ccccc2nc2n1CCc1c-2[nH]c2ccccc12` [Compound 1046, Rutaecarpine], the “Compound effect (percent receptor signaling in presence of test compound, relative lux units relative to the SCH23390 control)” value came to 78.

As for `CCCN(CCC)CCc1cccc2c1CC(=O)N2` [Compound 1047, Ropinirole hydrochloride], the “Compound effect (percent receptor signaling in presence of test compound, relative lux units relative to the SCH23390 control)” value was 103.

Consider `CCCCCC(O)c1cccc(OCc2ccc3ccccc3n2)c1` (stereo not shown) [Compound 1049, REV 5901], for which the “Compound effect (percent receptor signaling in presence of test compound, relative lux units relative to the SCH23390 control)” value is listed as 103.

Regarding `CC(=O)c1c(O)c(C)c(O)c(Cc2c(O)c3c(c(C(=O)/C=C/c4ccccc4)c2O)OC(C)(C)C=C3)c1O` [Compound 1050, Rottlerin], the “Compound effect (percent receptor signaling in presence of test compound, relative lux units relative to the SCH23390 control)” value was 35.

Take `COc1ccccc1OCC(O)CN1CCN(CC(=O)Nc2c(C)cccc2C)CC1` (stereo not shown) [Compound 1051, Ranolazine dihydrochloride]: the “Compound effect (percent receptor signaling in presence of test compound, relative lux units relative to the SCH23390 control)” value stood at 100.

For the compound `COc1ccc(C2CNC(=O)C2)cc1OC1CCCC1` (stereo not shown) [Compound 1052, Rolipram], the “Compound effect (percent receptor signaling in presence of test compound, relative lux units relative to the SCH23390 control)” value came out at 118.

Regarding `CC[C@H](CO)Nc1nc(NCc2ccccc2)c2ncn(C(C)C)c2n1` [Compound 1055, Roscovitine], the “Compound effect (percent receptor signaling in presence of test compound, relative lux units relative to the SCH23390 control)” value was 28.

In the case of `C=C(C)[C@H]1Cc2c(ccc3c2O[C@@H]2COc4cc(OC)c(OC)cc4[C@@H]2C3=O)O1` [Compound 1056, Rotenone], the “Compound effect (percent receptor signaling in presence of test compound, relative lux units relative to the SCH23390 control)” value came to 41.

On to `NC(=O)c1ccc(OCC(O)CN2CC=C(c3ccc(F)cc3)CC2)cc1` (stereo not shown) [Compound 1057, Ro 8-4304], for which the “Compound effect (percent receptor signaling in presence of test compound, relative lux units relative to the SCH23390 control)” value came to 115.

On to `NC(=O)c1ncn([C@@H]2O[C@H](CO)[C@@H](O)[C@H]2O)n1` [Compound 1059, Ribavirin], for which the “Compound effect (percent receptor signaling in presence of test compound, relative lux units relative to the SCH23390 control)” value is recorded as 119.

As to `CNC(=C[N+](=O)[O-])NCCSCc1ccc(CN(C)C)o1` [Compound 1060, Ranitidine hydrochloride], the “Compound effect (percent receptor signaling in presence of test compound, relative lux units relative to the SCH23390 control)” value was 106.

Consider `Cc1nc2sccn2c(=O)c1CCN1CCC(=C(c2ccc(F)cc2)c2ccc(F)cc2)CC1` [Compound 1061, Ritanserin], for which the “Compound effect (percent receptor signaling in presence of test compound, relative lux units relative to the SCH23390 control)” value is 18.

Take `COC(=O)[C@H]1[C@H]2C[C@H]3c4[nH]c5ccccc5c4CCN3C[C@H]2CC[C@@H]1O` [Compound 1062, Rauwolscine hydrochloride]: the “Compound effect (percent receptor signaling in presence of test compound, relative lux units relative to the SCH23390 control)” value was 87.

As for `O=C(c1cc(O)c(O)c([N+](=O)[O-])c1)c1ccccc1F` [Compound 1065, Ro 41-0960], the “Compound effect (percent receptor signaling in presence of test compound, relative lux units relative to the SCH23390 control)” value was determined as 88.

Turning to `Nc1c(S(=O)(=O)O)cc(Nc2ccc(Nc3nc(Cl)nc(Nc4cccc(S(=O)(=O)O)c4)n3)c(S(=O)(=O)O)c2)c2c1C(=O)c1ccccc1C2=O` [Compound 1066, Reactive Blue 2], the “Compound effect (percent receptor signaling in presence of test compound, relative lux units relative to the SCH23390 control)” value is on record as 93.

On to `CC(C)COC(=O)OCN1C(=O)CN(CCN2CC(=O)N(COC(=O)OCC(C)C)C(=O)C2)CC1=O` [Compound 1070, Sobuzoxane], for which the “Compound effect (percent receptor signaling in presence of test compound, relative lux units relative to the SCH23390 control)” value came out at 96.

Turning to `C1COC(NC(C2CC2)C2CC2)=N1` [Compound 1071, Rilmenidine hemifumarate], the “Compound effect (percent receptor signaling in presence of test compound, relative lux units relative to the SCH23390 control)” value is listed as 114.

Turning to `COc1cccc(NC(=O)/C=C/c2ccc(Cl)cc2)c1` [Compound 1075, SB-366791], the “Compound effect (percent receptor signaling in presence of test compound, relative lux units relative to the SCH23390 control)” value is recorded as 105.

On to `Nc1ccc(S(=O)(=O)Nc2ccnn2-c2ccccc2)cc1` [Compound 1078, Sulfaphenazole], for which the “Compound effect (percent receptor signaling in presence of test compound, relative lux units relative to the SCH23390 control)” value turned out to be 112.

As to `CN1CCc2cccc(Cl)c2CC1` [Compound 1082, SKF 86466], the “Compound effect (percent receptor signaling in presence of test compound, relative lux units relative to the SCH23390 control)” value amounted to 37.

Regarding `Cl.NC1CCN(c2cccc(Cl)n2)CC1` [Compound 1083, SR 57227A], the “Compound effect (percent receptor signaling in presence of test compound, relative lux units relative to the SCH23390 control)” value worked out at 100.

On to `Cl.NNC(N)=O` [Compound 1086, Semicarbazide hydrochloride], for which the “Compound effect (percent receptor signaling in presence of test compound, relative lux units relative to the SCH23390 control)” value was 107.

As for `NCCCCNCCCN` [Compound 1089, Spermidine trihydrochloride], the “Compound effect (percent receptor signaling in presence of test compound, relative lux units relative to the SCH23390 control)” value is reported as 104.

With `C=CCN1C[C@H](C)N([C@H](c2ccc(C(=O)N(CC)CC)cc2)c2cccc(OC)c2)C[C@H]1C` [Compound 1090, SNC80], the “Compound effect (percent receptor signaling in presence of test compound, relative lux units relative to the SCH23390 control)” value was found to be 94.

In the case of `Br.Cc1cccc(C2CN(C)CCc3c2cc(O)c(O)c3Cl)c1` (stereo not shown) [Compound 1091, SKF 83959 hydrobromide], the “Compound effect (percent receptor signaling in presence of test compound, relative lux units relative to the SCH23390 control)” value is recorded as 50.

As to `NCCCNCCCCNCCCN` [Compound 1092, Spermine tetrahydrochloride], the “Compound effect (percent receptor signaling in presence of test compound, relative lux units relative to the SCH23390 control)” value was determined as 88.

As for `CC(=O)NNC(=O)N1Cc2ccccc2Oc2ccc(Cl)cc21` [Compound 1094, SC 19220], the “Compound effect (percent receptor signaling in presence of test compound, relative lux units relative to the SCH23390 control)” value turned out to be 99.

As to `Br.Oc1ccc(C2CNCc3sccc32)cc1O` (stereo not shown) [Compound 1095, SKF 89626], the “Compound effect (percent receptor signaling in presence of test compound, relative lux units relative to the SCH23390 control)” value amounted to 89.

`CC(=O)S[C@@H]1CC2=CC(=O)CC[C@]2(C)[C@H]2CC[C@@]3(C)[C@@H](CC[C@@]34CCC(=O)O4)[C@H]12` [Compound 1099, Spironolactone]: the “Compound effect (percent receptor signaling in presence of test compound, relative lux units relative to the SCH23390 control)” value worked out at 84.

As to `N[C@H](CO)C(=O)O` [Compound 1101, D-Serine], the “Compound effect (percent receptor signaling in presence of test compound, relative lux units relative to the SCH23390 control)” value was 100.

On to `C[n+]1cc2c3c(ccc2c2ccc4cc5c(cc4c21)OCO5)OCO3` [Compound 1103, Sanguinarine chloride], for which the “Compound effect (percent receptor signaling in presence of test compound, relative lux units relative to the SCH23390 control)” value was 75.

The assay is the same for the next values; noted with them: 10 µM compound, 300 nM dopamine, 2 hr; hit = compound effect <20.
On to `C[C@@H](CN1CCC(Cc2ccccc2)CC1)[C@@H](O)c1ccc(O)cc1.Cl` [Compound 1053, Ro 25-6981 hydrochloride], for which the “Compound effect (percent receptor signaling in presence of test compound, relative lux units relative to the SCH23390 control)” value is reported as 70%.

As to `CC(C)C[C@H](NP(=O)([O-])O[C@H]1O[C@H](C)[C@@H](O)[C@H](O)[C@@H]1O)C(=O)N[C@@H](Cc1c[nH]c2ccccc12)C(=O)[O-].[Na+].[Na+]` [Compound 1054, Phosphoramidon disodium], the “Compound effect (percent receptor signaling in presence of test compound, relative lux units relative to the SCH23390 control)” value is recorded as 104%.

Regarding `COC1(C2=NCCN2)COc2ccccc2O1.Cl` (stereo not shown) [Compound 1058, RX 821002 hydrochloride], the “Compound effect (percent receptor signaling in presence of test compound, relative lux units relative to the SCH23390 control)” value came out at 121%.

Take `COc1ccc(CCNC[C@H](O)c2ccc(O)cc2)cc1OC` [Compound 1072, R(-)-Denopamine]: the “Compound effect (percent receptor signaling in presence of test compound, relative lux units relative to the SCH23390 control)” value is recorded as 107%.

On to `CNc1cc(NS(=O)(=O)c2ccc(N)cc2)nc(NC)n1.Cl.Cl` [Compound 1073, Ro 04-6790 dihydrochloride], for which the “Compound effect (percent receptor signaling in presence of test compound, relative lux units relative to the SCH23390 control)” value turned out to be 135%.

With `CC1=C(CC(=O)O)c2cc(F)ccc2/C1=C\c1ccc(S(C)(=O)=O)cc1` [Compound 1080, Sulindac sulfone], the “Compound effect (percent receptor signaling in presence of test compound, relative lux units relative to the SCH23390 control)” value is 122%.

As to `Br.CN1CCc2cc(O)c(O)cc2C(c2ccccc2)C1` (stereo not shown) [Compound 1093, SKF 75670 hydrobromide], the “Compound effect (percent receptor signaling in presence of test compound, relative lux units relative to the SCH23390 control)” value worked out at 39%.

On to `CCCCN1CCC(COC(=O)c2cc(Cl)c(N)c3c2OCCO3)CC1.Cl` [Compound 1097, SB 204070 hydrochloride], for which the “Compound effect (percent receptor signaling in presence of test compound, relative lux units relative to the SCH23390 control)” value is listed as 122%.

`CCCCCCCC/C=C\CCCCCCCC(=O)NCCc1ccc(O)c(O)c1` [Compound 1098, N-Oleoyldopamine]: the “Compound effect (percent receptor signaling in presence of test compound, relative lux units relative to the SCH23390 control)” value was 122%.

Regarding `Br.CN=c1nc(-c2ccccc2)n(-c2ccccc2)s1` [Compound 1100, SCH-202676 hydrobromide], the “Compound effect (percent receptor signaling in presence of test compound, relative lux units relative to the SCH23390 control)” value is 102%.

As to `CC(C)(C)NCC(O)c1ccc(O)c(CO)c1.CC(C)(C)NCC(O)c1ccc(O)c(CO)c1.O=S(=O)(O)O` (stereo not shown) [Compound 1102, Albuterol hemisulfate], the “Compound effect (percent receptor signaling in presence of test compound, relative lux units relative to the SCH23390 control)” value amounted to 106%.

For `O=C(O)CCC(=O)N1CCC[C@H]1C(=O)O` [Compound 1104, N-Succinyl-L-proline], the “Compound effect (percent receptor signaling in presence of test compound, relative lux units relative to the SCH23390 control)” value was determined as 111%.

The same assay, now with this note: read-out: % of the SCH23390 effect (percent inhibition of receptor response relative to the SCH23390 control).
Turning to `Cc1nc2sccn2c(=O)c1CCN1CCC(=C(c2ccc(F)cc2)c2ccc(F)cc2)CC1` [Compound 1061, Ritanserin], the inhibition at 10 µM turned out to be 83%.

These data come from PMC3265452 (PLoS Neglected Tropical Diseases, 2012).
